≈ marks a conversion by molar mass, not a printed value.
Assays:
S. aureus ATCC 10390 [1] = assay: Estimated MIC, solution-phase microdilution absorbance assay with crude macroarray spot stock solutions; format: cell-based, Staphylococcus aureus; details: for MIC: Staphylococcus aureus, ATCC10390, 12 h
Procedure: Spots from a new 69 member chalcone macroarray as well as the three heterocyclic macroarrays prepared earlier were punched out, cleaved, and eluted with acetonitrile. The resulting solutions were concentrated to a residue that was taken up in DMSO to form 2 mM stock solutions.
From the stock solutions, microdilution assays in a 96 well plate starting at 50 μM were performed in quadruplicate. Each well contained 5 μL of the stock solution as well as 195 μL of a S. aureus culture. The turbidity of each well was measured after incubating 12 hours using a standard plate reader. Active compounds can be further diluted and the assay repeated.
To acquire more quantitative antibacterial activity data about our compounds and verify our on-support assay results, we performed solution-phase absorbance assays that provided estimates of the minimum inhibitory concentration (MIC) of each macroarray member against S. aureus. Stock solutions (ca. 2 mM) were generated by cleaving and eluting 198 individual compounds from chalcone (3) and heterocyclic macroarrays (5, 7, and 8). […] The good overall purities of the crude macroarray compounds allowed for reasonable estimations of MICs.
(§1) For estimated MIC determination, DMSO was added to the dried compound residue obtained from a single spot to afford ca. 100 μL of a 2 mM stock solution. Aliquots (5 μL) of these solutions were added to a 96-well plate, followed by 195 μL of diluted S. aureus 10390 (10^6 CFUs/mL) to yield ca. 50 μM final concentrations. The plates were swirled for 1 h to ensure compound dissolution, incubated for 12 h at 37° C., and the absorbance at 595 nm was recorded using a plate reader. […] Actual MIC values were determined for lead compounds resynthesized in solution using an analogous procedure with solutions of known concentration (see).
Preparation of spot samples and controls. An aliquot of DMSO (ca. 100 μL depending on the loading of the parent hydroxyacetophenone) was added to the dried compound residue obtained after TFA cleavage and elution from a single spot. This afforded a 2.0 mM “spot stock” solution for each spot. A small aliquot of each “spot stock” solution was saved for subsequent LC-MS analysis.
For estimated MIC screens, 5.0 μL portions of the “spot stock” solutions were added to the appropriate wells in a sterile, polystyrene 96-well plate to yield ca. 50 μM solutions (dependent on the initial loading of hydroxyacetopheneone and compound purity). To the positive and negative control wells, 5.0 μL of DMSO were added (positive controls contained bacteria but no compound, while negative controls had neither compound nor bacteria). All estimated MIC assays were performed in quadruplicate. Note: the MIC value is defined as the lowest concentration where no bacterial growth occurs.
Representative estimated MIC assay procedure. This assay procedure is based in part on the method reported by Strøm et al.^xiii A 400 μL portion of overnight S. aureus 10390 culture was diluted with 100 mL of sterile LB broth to give ca. 10^6 CFUs per mL. Aliquots (195 μL) of this solution were added to all of the wells in a sterile 96-well plate (except for the negative control wells; 195 μL of sterile LB broth were added to these wells). The plates were placed on an orbital shaker table and gently swirled for 1 h to ensure compound dissolution, and then incubated (without shaking) for 12 h at 37° C. The absorbance at 595 nm was recorded using a plate reader.
The original “spot stock” solutions of these compounds were diluted with DMSO to give ca. 25 and 13 μM final concentrations and tested for inhibitory activities using the procedure described above.

[2] = system: Methicillin-resistant S. aureus ATCC 33591 (MRSA); assay: MIC determination with authentic compounds resynthesized in solution; format: cell-based; details: Staphylococcus aureus; Table 3; authentic sample, only trans isomers of chalcones; error reflects step size in the serial dilutions
Procedure: as §1
(§2) Dose response growth inhibition curves were determined for each active compound (resynthesized in solution) against S. aureus 10390 (SA) and methicillin-resistant S. aureus 33591 (MRSA). […] MIC assays were performed in quadruplicate.

S. aureus ATCC 10390 [3] = assay: as above; format: cell-based, Staphylococcus aureus; details: for MIC: Staphylococcus aureus, ATCC10390
Procedure: as §1, §2

S. aureus 10390 = assay: Time-dependent bacterial killing curves; format: cell-based, Staphylococcus aureus; details: 0.5x to 4x MIC, 0-6 h
Procedure: Solutions of compounds 4Bv, 6Ao, 9Cf, and linezolid were prepared in DMSO over a range of concentrations. […] At 0, 2, 4, and 6 h time points, […] samples were withdrawn from the test tubes, diluted into 10 mL of LB broth in a test tube, and swabbed in duplicate on agar plates to determine CFUs. These plates were incubated at 37° C. for 24 h, after which time the colonies were counted visually. […] Instead, 200 μL was removed from the test tube and directly swabbed on the agar plates.

O=C(/C=C/c1cc(C(F)(F)F)cc(C(F)(F)F)c1)c1cccc(O)c1 [Compound 4Bv, 3′-hydroxy-3,5-bis(trifluoromethyl)chalcone]
inhibition of S. aureus at the 12.5 μM level (S. aureus ATCC 10390 [1]; 12.5 μM, macroarray stock solutions diluted four fold): complete inhibition | MIC (S. aureus ATCC 10390 [1]; Table 2, serial dilution of stock solutions obtained by SPOT-synthesis, read-out: estimated MIC range): 6.25 to 12.5 µM (≈ 2.25 to 4.5 µg/mL) | MIC (S. aureus ATCC 10390 [1]; Table 3, serial dilution of spot stock solutions of crude macroarray compounds, read-out: S. aureus Estimated MIC range): < 12.5 µM | MIC [2]: 3 ± 0.5 µM (≈ 1.08 µg/mL) | MIC (S. aureus ATCC 10390 [3]; Table 2, authentic sample synthesized according to standard techniques, read-out: observed MIC): 3.3 ± 0.3 µM (≈ 1.19 µg/mL) | MIC (S. aureus ATCC 10390 [3]; Table 3, authentic sample, only trans isomers of chalcones, error reflects step size in the serial dilutions, read-out: S. aureus MIC): 3.5 ± 0.5 µM (≈ 1.26 µg/mL) | MIC against S. aureus 10390 (S. aureus ATCC 10390 [3]; values quoted in killing-curve protocol, unit not given): ca. 3.5 | mode of activity (bacteriostatic or bactericidal) (S. aureus 10390): bacteriostatic
